The subject of the experiment is TNF-α. The experiment in a line: Lipopolysaccharide-activated THP1 cell TNF production assay (LPS induced TNF release). The following applies: Homo sapiens, THP-1; THP1 cells, bacterial LPS, secreted TNF-α after 3 h at 37° C. Type of experiment: cell-based. The protocol:
Lipopolysaccharide-Activated THP1 Cell TNF Production Assay
THP1 cells are resuspended in fresh THP1 media (RPMI 1640, 10% heat-inactivated FBS, 1XPGS, 1XNEAA, plus 30 μM βME) at a concentration of 1E6/mL. One hundred microliters of cells per well are plated in a polystyrene 96-well tissue culture. One microgram per mL of bacterial LPS is prepared in THP1 media and is transferred to the wells. Test compounds are dissolved in 100% DMSO and are serially diluted 3 fold in a polypropylene 96-well microtiter plate (drug plate). HI control and LO control wells contain only DMSO. One microliter of test compound from the drug plate followed by 10 μL of LPS are transferred to the cell plate. The treated cells are induced to synthesize and secrete TNF-α at 37° C. for 3 h. Forty microliters of conditioned media are transferred to a 96-well polypropylene plate containing 110 μL of ECL buffer (50 mM Tris-HCl pH 8.0, 100 mM NaCl, 0.05% Tween 20, 0.05% NaN3 and 1% FBS) supplemented with 0.44 nM MAB610 monoclonal Ab (R&D Systems), 0.34 nM ruthenylated AF210NA polyclonal Ab (R&D Systems) and 44 μg/mL sheep anti-mouse M280 Dynabeads (Dynal). After a 2 h incubation at room temperature with shaking, the reaction is read on the ECL M8 Instrument (IGEN Inc.). A low voltage is applied to the ruthenylated TNF-α immune complexes, which in the presence of TPA (the active component in Origlo), results in a cyclical redox reaction generating light at […]. The amount of secreted TNF-α: in the presence of compound compared with that in the presence of DMSO vehicle alone (HI control) is calculated using the formula:% control (POC)=(cpd−average LO)/(average HI−average LO)*100. Data (consisting of POC and inhibitor concentration in μM) is fitted to a 4-parameter equation (y=A+((B−A)/(1+((x/C)ˆD))), where A is the minimum y (POC) value, B is the maximum y (POC), C is the x (cpd concentration) at the point of inflection and D is the slope factor) using a Levenburg-Marquardt non-linear regression algorithm.

By IC50 is commonly meant the concentration needed to halve the response being measured. Low readings indicate greater potency in that assay, high ones weaker potency in that assay.

Regarding `C[C@H](Nc1nccc(Nc2nc(-c3ccccc3)cc3ncnn23)n1)c1ccccc1` [Example 7, (S)—N^2-(1-phenyl-ethyl)-N^4-(7-phenyl-[1,2,4]triazolo[1,5-c]pyrimidine-5-yl)-pyrimidine-2,4-diamine], the 50% inhibitory concentration (IC50) is at most 20 µM.

The compound `C[C@@H](Nc1nccc(Nc2nc(-c3ccccc3)cc3ncnn23)n1)c1ccccc1` [(R)-N^2-(1-Phenyl-ethyl)-N^4-(7-phenyl-[1,2,4]triazolo[1,5-c]pyrimidine-5-yl)-pyrimidine-2,4-diamine] came in with an IC50 of at most 20 µM.

Compound `CC(Cc1cccc(CO)c1)Nc1nccc(N(C)c2nc(-c3ccccc3)cc3ncnn23)n1` (stereo not drawn) [[3-(2-{4-[methyl-(7-phenyl-[1,2,4]triazolo[1,5-c]pyrimidine-5-yl)-amino]-pyrimidin-2-ylamino}-propyl)-phenyl]-methanol] showed an IC50 of at most 20 µM.

`CC(Cc1cccc(CN)c1)Nc1nccc(N(C)c2nc(-c3ccccc3)cc3nccn23)n1` (stereo not drawn) [N2-[2-(3-Aminomethyl-phenyl)-1-methyl-ethyl]-N4-methyl-N4-(7-phenyl-imidazo[1,2-c]pyrimidin-5-yl)-pyrimidine-2,4-diamine] returned an IC50 of at most 20 µM.

In turn, `CC(Cc1cccc(CO)c1)Nc1nccc(N(C)c2nc(-c3ccccc3)cc3nccn23)n1` (stereo not drawn) [[3-(2-{4-[Methyl-(7-phenyl-imidazo[1,2-c]pyrimidin-5-yl)-amino]-pyrimidin-2-ylamino}-propyl)-phenyl]-methanol] displayed an IC50 of at most 20 µM.

Compound `C[C@@H](Cc1cccc(CO)c1)Nc1nccc(N(C)c2nc(-c3ccccc3)cc3ncnn23)n1` [(S)-[3-(2-{4-[methyl-(7-phenyl-[1,2,4]triazolo[1,5-c]pyrimidine-5-yl)-amino]-pyrimidin-2-ylamino}-propyl)-phenyl]-methanol] displayed an IC50 of at most 20 µM.

With `C[C@@H](Cc1cccc(S(=O)(=O)N(C)CCN(C)C)c1)Nc1nccc(N(C)c2nc(-c3ccccc3)cc3ncnn23)n1`, the IC50 was at most 20 µM.

`Cc1cc(N(C)c2nc(-c3ccccc3)cc3ncnn23)nc(N[C@@H](C)Cc2cccc(CN)c2)n1` displayed an IC50 of at most 20 µM.

`CC(Cc1ccccc1)Nc1nccc(Nc2nc(-c3ccccc3)cc3ncnn23)n1` (stereo not drawn) [N^2-(1-methyl-2-phenyl-ethyl)-N^4-(7-phenyl-[1,2,4]triazolo[1,5-c]pyrimidine-5-yl)-pyrimidine-2,4-diamine] displayed an IC50 of at most 20 µM.

In turn, `CC(Cc1cccc(CN)c1)Nc1nccc(N(C)c2cc(-c3ccccc3)cc3ncnn23)n1` (stereo not drawn) [N^2-[2-(3-Aminomethyl-phenyl)-1-methyl-ethyl]-N^4-methyl-N^4-(7-phenyl-[1,2,4]triazolo[1,5-a]pyridin-5-yl)-pyrimidine-2,4-diamine] gave an IC50 of at most 20 µM.

In the case of `C[C@@H](Cc1ccccc1)Nc1nccc(N(C)c2nc(-c3ccccc3)cc3ncnn23)n1` [Example 10, N^4-methyl-N^2-(S)-(1-methyl-2-phenyl-ethyl)-N^4-(7-phenyl-[1,2,4]triazolo[1,5-c]pyrimidine-5-yl)-pyrimidine-2,4-diamine], the IC50 was at most 20 µM.

In turn, `CC(Cc1cccc(CN)c1)Nc1nccc(N(C)c2nc(-c3ccccc3)cc3ncnn23)n1` (stereo not drawn) [N^2-[2-(3-aminomethyl-phenyl)-1-methyl-ethyl]-N^4-methyl-N^4-(7phenyl-[1,2,4]triazolo[1,5-c]pyrimidin-5-yl)-pyrimidine-2,4-diamine] yielded an IC50 of at most 20 µM.

For `CC(Cc1cccc(C(C)N)c1)Nc1nccc(N(C)c2nc(-c3ccccc3)cc3ncnn23)n1` (stereo not drawn) [N^2-{2-[3-(1-amino-ethyl)-phenyl]-1-methyl-ethyl}-N^4-methyl-N^4-(7-phenyl-[1,2,4]triazolo[1,5-c]pyrimidine-5-yl)-pyrimidine-2,4-diamine], the IC50 is at most 20 µM.

For the compound `c1ccc(CCNc2nccc(Nc3nc(-c4ccccc4)cc4ncnn34)n2)cc1` [Example 4, N^2-phenethyl-N^4-(7-phenyl-[1,2,4]triazolo[1,5-c]pyrimidine-5-yl)-pyrimidine-2,4-diamine], the concentration for half-maximal inhibition (IC50) was at most 20 µM.

The compound `C[C@@H](Cc1cccc(CN)c1)Nc1nccc(N(C)c2nc(-c3ccccc3)cc3ncnn23)n1` [(S)-N^2-[2-(3-aminomethyl-phenyl)-1-methyl-ethyl]-N^4-methyl-N^4-(7-phenyl-[1,2,4]triazolo[1,5-c]pyrimidin-5-yl)-pyrimidine-2,4-diamine] yielded an IC50 of at most 20 µM.

As to `CN(c1ccnc(NC2CCN(C(=O)OC(C)(C)C)CC2)n1)c1nc(-c2ccccc2)cc2ncnn12` [4-{4-[methyl-(7-phenyl-[1,2,4]triazolo[1,5-c]pyrimidin-5-yl)-amino]-pyrimidin-2-ylamino}-piperidine-1-carboxylic acid tert-butyl ester], the IC50 is at most 20 µM.

In turn, `Cc1cc(N(C)c2nc(-c3ccccc3)cc3ncnn23)nc(N[C@@H](C)Cc2cccc([C@@H](C)N)c2)n1` [Example 35] showed an IC50 of at most 20 µM.

Compound `C[C@@H](Cc1cccc(S(N)(=O)=O)c1)Nc1nccc(N(C)c2nc(-c3ccccc3)cc3ncnn23)n1` displayed an IC50 of at most 20 µM.

Source of the values: US20050288502A1, “Substituted heterocyclic compounds and methods of use” (priority 2004, published 2005).
